In patent publication US20010016952A1, “Pathogenesis of cardiomyopathy” (priority 1999, published 2001):
“Also recorded” adds a separate entry of the source.

Legend:
Type in all cases: in vivo, mouse
[1] = test system: wild type or Sgca-null mice; assay: Treadmill exercise of wild type or Sgca-null mice after Nicorandil; conditions: after administration of Nicorandil
Experimental: (§1) Treadmill exercise. […] Animals were exercised at 12-17 m/min for about 10 min and for 25-30 m/min for the remaining 50 min. If an animal became exhausted, the shock bar of this lane was turned off and the animal was allowed to rest at the back of the treadmill for a short period of time. Wild type (n=20), Sgca- (n=20) and Sgcd-null mice (n=42) were divided in approximately equal numbers of male and females. All mice were injected with Evans blue dye (0.5 mg EBD/0.05 ml PBS) intraperitoneally 8 hr before the exercise. Animals were injected with 50 μl of this solution per 10-g body weight. All surviving animals were kept alive for 36-48 hr and serial sections of cardiac muscle were studied for Evans blue uptake and for histopathological signs of necrosis by using routine H&E technique. The effect of Nicorandil treatment on treadmill performance in wild type (n=6), Sgca- (n=6) and Sgcd-null mice (n=20) was studied after 3 days of intraperitoneal injection of Nicorandil at a dose of 1 mg/kg body weight twice a day. Quantification of Evans blue positive stained areas in sections of cardiac muscle from Sgca- and Sgcd-null mice (n=20, each group) was done by using the Scion image program. The percentage of positive stained areas was calculated by dividing the area of staining by the total area of the analyzed heart section.

Sgcd-null mice [2] = assay: Treadmill exercise of Sgcd-null mice with Evans blue dye uptake and H&E histopathology of cardiac muscle
Experimental: Treadmill exercise is one of the primary methods used clinically to induce cardiovascular stress in human and animals (Fewell et al., Am. J. Physiol. 273: H1595-H1605 (1997)) and is used to detect cardiovascular abnormalities (e.g. coronary artery dysfunction) that may not be readily apparent at rest. […] All mice were injected with Evans blue dye (EBD) 8 hr before the exercise. EBD is a small molecular mass tracer that tightly complexes with serum albumin. Normally, this is a membrane impermeable molecule, but if the sarcolemma integrity is compromised this dye readily penetrates into the cytoplasm of muscle fibers (Matsuda et al., J. Biochem. (Tokyo) 118: 959-964 (1995); Straub et al., J. Cell Biol. 139: 375-385 (1997)). EBD uptake as well as routine histopathology was examined in the cardiac muscle.
as §1, with “All surviving animals were kept alive for 36-48 hr and serial sections of cardiac muscle were studied for Evans blue uptake and for histopathological signs of necrosis by using routine H&E technique.” left out

Sgcd-null mice [3] = assay: Systemic blood pressure after Nicorandil; conditions: at the dose given
Sgcd-null mice [4] = assay: Microfil perfusion of coronary arteries
Excerpt: The Microfil® perfusion technique was used in vivo in order to determine whether disruption of the SG-SSPN complex in smooth muscle of coronary arteries indeed leads to vascular perfusion abnormalities. Wild type, Sgca-null and Sgcd-null mice at the age of 2-6 months were perfused, and cleared sections of the heart were visualized using trans-illumination with low-power magnification. The coronary microvessels were distributed normally and were smoothly tapered in both wild type and Sgca-null mice. […] Pre- and poststenotic dilation as an appearance of microaneurysm was frequently associated with these constrictions. Extensive areas of focal vascular lumen narrowing and a generalized sparseness of perfusion were observed. […] Quantification of vascular abnormalities in Sgcd-null mice at different ages were determined by calculating the mean numbers of abnormal vessels ±SEM in 10 nonadjacent microscopic fields at a magnification of 10×. No lesions were detected in Sgca-null and wild type mice.
Microfil® perfusion. In order to study coronary microvascular perfusion mice were anesthetized with Phenobarbital 75 mg/kg body weight and a bilateral sternum incision was performed to expose the left atrium. 1-1.5 ml of Microfil®, a liquid silicon rubber (Flow tech, Carver, Mass.) was perfused into the left atrium. The heart continued beating for about 1 min and after contraction stopped the heart was rapidly excised and cured on ice for about 10 min. […] Microvascular perfusion was visualized with both epi- and tans-illumination and examined under low power magnification (×10-20). the vascular irregularities in Sgcd-null mice at different ages (2, 4, and 6 months) were quantified by counting the number of abnormal individual vessel segments in 10 nonadjacent microscopic field using a low magnification (10×) and the mean number of abnormal vessels were calculated for each mouse. An average number of abnormal vessels ±SEM were then calculated for each age group. Vessels segments with more than one abnormality were only counted once.

[5] = Sgcd-null mice after administration of Nicorandil

With `O=C(NCCO[N+](=O)[O-])c1cccnc1` [Nicorandil] the “general behavior during exercise and cardiac muscle abnormalities” value [1] was “No alteration of the general behavior during exercise or any cardiac muscle abnormalities was observed”, the “EBD uptake in cardiac muscle” value (Sgcd-null mice [2]; 2 months old exercised Sgcd-null mice, intraperitoneal Nicorandil for 3 days prior to the exercise) was “No EBD uptake was observed” and the “development of multiple myocardial ischemic lesions” value (Sgcd-null mice [2]; Sgcd-null mice (n=20), treadmill exercise, Nicorandil intraperitoneal 1 mg/kg body weight twice a day for 3 days prior to exercise) was “prevented mortality and the development of multiple myocardial lesions; also recorded: prevent the development of multiple myocardial ischemic lesions in all Sgcd-null mice”. For the same compound, the “mortality in treadmill stressed mice” value (Sgcd-null mice [2]; Sgcd-null mice, Nicorandil given prior to the application of physical stress) was “prevented mortality”, the systemic blood pressure (Sgcd-null mice [3]) was “did not lower the systemic blood pressure” and the “constrictions and focal luminal narrowing of the coronary microvascular bed (perfusion studies)” value (Sgcd-null mice [4]; Nicorandil treated Sgcd-null mice) was “free of constrictions and focal luminal narrowing”. The “density of the vasculature (Microfil perfusion)” value (Sgcd-null mice [4]; [5]) was “overall greater density of the vasculature” and the “vascular constrictions of coronary arteries (Microfil perfusion)” value (Sgcd-null mice [4]; [5]) was “no evidence of vascular constrictions”.
